Experimental data: patent US12274751B2, “Composition and method of the use of colchicine oral liquid” (priority 2016, dated 2025)

Columns and labels:
[1] = Stability of colchicine solution, colchicine assay (% label claim); assay type: physicochemical; conditions: API (colchicine drug substance), calculated on the anhydrous, solvent-free basis
Description: The colchicine solution is formulated and assayed for colchicine levels. Stability of the claimed formulation was tested at room temperature, 30° C., and 40° C. and assayed for the colchicine. […] The fact that the oral solution was so stable after 6 months at an accelerated temperature (40 degrees Celsius, which corresponds to 24 months at room temperature) was quite surprising. Solutions of colchicine for oral administration to humans have not been developed because they were believed to be too unstable. The data presented herein show for the first time that an oral colchicine solution can remain stable with minimal degradants and thus have a long shelf life consistent with commercial formulations.
The colchicine solution in Table 4 was packaged in a 190 mL HDPE bottle and assayed by HPLC cUSP.
The label claim of the liquid solution is 0.12 mg/ml and the assay results of the active ingredient are reported as percent of label claim. For instance, the label claim of an exemplary colchicine solution of the invention is 0.12 mg/ml. The FDA requirement for stability results for drugs is 90-110% label claim.

[2] = in the presence of glycerin; Habib et al. 1989; cited from earlier work
in vitro = conditions: human, Caco-2
Description: To verify the Caco-2 cell monolayers were properly formed, aliquots of the cell buffers were analyzed by fluorescence to determine the transport of the impermeable dye Lucifer Yellow.

Structure (SMILES)	Stability Results (% Label Claim) [1] [% Label Claim]	loss by photodegradation in solution [2] [%]	Papp A→B (in vitro) [×10⁻⁶ cm/s]	Papp B→A (in vitro) [×10⁻⁶ cm/s]
COc1cc2c(c(OC)c1OC)-c1ccc(OC)c(=O)cc1[C@@H](NC(C)=O)CC2 [Colchicine, (−)-N-[(7S,12aS)-1,2,3,10-tetramethoxy-9-oxo-5,6,7,9-tetrahydrobenzo[a]heptalen-7-yl]-acetamide]	91.8	≤ 50	–	–
COCCc1ccc(OCC(O)CNC(C)C)cc1 (centres unmarked) [metoprolol]	–	–	13.7	27.2
CNC(=C[N+](=O)[O-])NCCSCc1ccc(CN(C)C)o1 [ranitidine]	–	–	0.27	–
